From ChEMBL document CHEMBL1201862, “PubChem BioAssay data set” (2004) come the findings set out here.

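Briefly, cells in 96-well plates were exposed to five compound concentrations for 48 h, and endpoints were estimated by linear interpolation. GI50: concentration for 50% inhibition of growth.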 Calls of active or inactive are those of the source. Rule as the data show it: active = GI50 up to about 1.1 µM and inactive = higher. Where a SMILES comes first, the peptide text is derived from it. [ ]: non-standard residue; d: D form. The star is where a group is joined. Cbz = O=C(OCc1ccccc1)*; Aib = CC(C)(N)C(=O)O

Common to all, as to experiment: NCI-60 cell line screen, 48 h
Test [1] concerns HOP-62.
For test [2], the system named is Malme-3M.
The test system of test [3] is SF-539.
The test system of test [4] is EKVX.
In test [5] the test system is NCI-H522.
The test system of test [6] is NCI-H226.
In test [7] the test system is CCRF-CEM.
Test [8] relates to UO-31.
The subject of test [9] is SR.
The subject of test [10] is T47D.
Test [11] relates to SNB-75.
In test [12] the test system is MDA-MB-231.
Test [13] deals with COLO 205.
For test [14], the system named is LOX IMVI.
In test [15] the test system is UACC-62.
Test [16] has as its system SK-OV-3.
In test [17] the test system is HCT-15.
The subject of test [18] is OVCAR-3.
For test [19], the system named is A498.
Test [20] deals with BT-549.

For the molecule `COC[C@@H](/N=C/C(C)(C)C)C(C)C`, the GI50 in test [1], in test [2], in test [3], in test [4], in test [5] and in [6] was > 100 µM (inactive) in each case. Also, the GI50 in test [7], in [8], in test [9], in [10], in test [11] and in test [12] was > 100 µM (inactive) in each case. In addition, the GI50 is > 100 µM (inactive) in [13]; > 100 µM (inactive) in test [14]; > 100 µM (inactive) in test [15]; > 100 µM (inactive) in test [16]; more than 100 µM in test [17]; > 100 µM (inactive) in test [18]. Moreover, the GI50 in [19] is > 100 µM (inactive).

For `O=C(Nc1cccc(F)c1)c1cc2ccc(O)cc2o/c1=N\c1ccccc1F`, the GI50 in test [1] is 8.89 µM (inactive); in [2], 4.3 µM (inactive); in test [3], 7.43 µM (inactive); in test [4], 2.18 µM (inactive); in test [5] it was 2.09 µM (inactive); in test [7], 2.47 µM (inactive). Further, the GI50 in test [8] was 4 µM (inactive); in [9], 2.47 µM (inactive); in test [10], 3.38 µM (inactive); in [13] it was 21.1 µM (inactive); in test [20], 2.13 µM (inactive); in test [14] it was 2.96 µM (inactive). Further, the GI50 was 4.38 µM (inactive) in [15]; 5.36 µM (inactive) in test [16]; 2.88 µM in test [17]; 3.81 µM (inactive) in test [18]; 16.1 µM (inactive) in test [19].

With `CO/N=C/c1c(-c2ccc(Cl)cc2)c(/C=N/OC)n2c1sc1ccccc12`, the GI50 in [1] is > 100 µM (inactive); in test [2], > 100 µM (inactive); in [4], > 100 µM (inactive); in test [5], > 100 µM (inactive); in [7], 70.1 µM (inactive); in [8] it was > 100 µM (inactive). The GI50 was 21.2 µM (inactive) in test [10]; > 100 µM (inactive) in test [11]; > 100 µM (inactive) in [12]; > 100 µM (inactive) in test [13]; > 100 µM (inactive) in test [20]; > 100 µM (inactive) in test [14]. Moreover, the GI50 was > 100 µM (inactive) in test [15], > 100 µM (inactive) in test [16], more than 100 µM in [17] and > 100 µM (inactive) in test [18].

For the molecule `C(=N\c1ccc(-c2nc3ccccc3s2)cc1)/c1cccs1`, the GI50 in test [1] was 30.3 µM (inactive); in test [2] it was 68.5 µM (inactive); in test [3], 59.3 µM (inactive); in [4] it was 45.2 µM (inactive); in test [5] it was 32.1 µM (inactive); in test [6], 54.2 µM (inactive). The GI50 in [7] is 0.617 µM (active); in [8], 43.9 µM (inactive); in [9] it was 39.6 µM (inactive); in [10], 22.8 µM (inactive); in test [11], 29.9 µM (inactive); in test [13] it was 42.1 µM (inactive). Moreover, the GI50 was 56.2 µM (inactive) in test [20]; 46.1 µM (inactive) in test [14]; 42 µM (inactive) in [15]; 81.8 µM (inactive) in test [16]; 40.6 µM in test [17]; 42.5 µM (inactive) in [18]. Also, in [19], the GI50 was 25.1 µM (inactive).

In the case of `CC(C)(C)COC(=O)C(C)(C)NC(=O)C(CC(=O)OCc1ccccc1)NC(=O)OCc1ccccc1` (stereo not drawn), the GI50 was 75 µM (inactive) in test [1]; 29.6 µM (inactive) in test [2]; 25.1 µM (inactive) in test [3]; 54.3 µM (inactive) in [4]; 24 µM (inactive) in test [5]; 29.2 µM (inactive) in test [6]. The GI50 in [7] was 25.3 µM (inactive); in test [8] it was 24 µM (inactive); in test [9] it was 25.5 µM (inactive); in test [10] it was 20.2 µM (inactive); in test [11] it was 13.9 µM (inactive); in test [12], 42.9 µM (inactive). The GI50 was 21 µM (inactive) in test [13]; 43.5 µM (inactive) in test [14]; 19.5 µM (inactive) in test [15]; 35.4 µM (inactive) in test [16]; 25.6 µM in test [17]; 41.4 µM (inactive) in [18]. In addition, the GI50 in test [19] was 28.2 µM (inactive).

For the molecule `CC(=O)CC1(OC(=O)C2C(C=C(C)C)C2(C)C)C(=O)Nc2ccccc21` (stereo not drawn), the GI50 is > 100 µM (inactive) in test [1]; > 100 µM (inactive) in test [2]; > 100 µM (inactive) in [3]; > 100 µM (inactive) in test [4]; 64.6 µM (inactive) in [5]; > 100 µM (inactive) in test [6]. Further, the GI50 is 55.3 µM (inactive) in [7]; > 100 µM (inactive) in [8]; > 100 µM (inactive) in [9]; > 100 µM (inactive) in [10]; 51.3 µM (inactive) in test [11]; > 100 µM (inactive) in [12]. Also, the GI50 in [13] was > 100 µM (inactive); in [14], > 100 µM (inactive); in [15], > 100 µM (inactive); in [16] it was > 100 µM (inactive); in test [17], more than 100 µM; in [18], 54.2 µM (inactive). The GI50 in test [19] was > 100 µM (inactive).

Consider `CC(=O)N1c2cc(/N=N/N(C)C)ccc2NC(=O)CC1C` (stereo not drawn), for which the GI50 in test [1], in test [2], in test [4], in [5], in [6] and in [7] was > 100 µM (inactive) in each case. In addition, the GI50 in test [8], in test [10], in test [11], in test [12], in test [13] and in [20] was > 100 µM (inactive) each time. The GI50 in [15] is > 100 µM (inactive); in test [16], > 100 µM (inactive); in test [17] it was more than 100 µM; in test [18], > 100 µM (inactive).

As for `Oc1ccc2ccccc2c1/N=N\c1cccc2ccccc12`, the GI50 is > 100 µM (inactive) in [1]; 36 µM (inactive) in test [4]; 82.6 µM (inactive) in test [5]; > 100 µM (inactive) in test [6]; 58.1 µM (inactive) in test [7]; > 100 µM (inactive) in test [8]. The GI50 in [9] was < 0.01 µM (active); in [10], > 100 µM (inactive); in test [11] it was > 100 µM (inactive); in test [12], > 100 µM (inactive); in [13], > 100 µM (inactive); in test [14], > 100 µM (inactive). Besides, the GI50 in test [15] is > 100 µM (inactive); in test [16], > 100 µM (inactive); in [17], more than 100 µM; in test [18], > 100 µM (inactive).

`O=c1[nH]c(=O)n(Cc2ccccc2CO)cc1Sc1ccccc1`: the GI50 in test [1] is 32.8 µM (inactive); in test [2], 21.4 µM (inactive); in test [3], 23.2 µM (inactive); in test [4], 21 µM (inactive); in test [5], 1.87 µM (inactive); in test [6], 22.4 µM (inactive). Moreover, the GI50 in [7] is 28.7 µM (inactive); in test [8] it was 7.4 µM (inactive); in [9], 25.4 µM (inactive); in test [10] it was 62.4 µM (inactive); in [11], 36.6 µM (inactive); in [12] it was 11.8 µM (inactive). Also, the GI50 in test [13] is 37.2 µM (inactive); in test [15] it was 31.3 µM (inactive); in test [16], 42.4 µM (inactive); in test [17] it was 18.8 µM; in test [18], 19.5 µM (inactive).

For the molecule `CC(C)(NC(=O)C(C)(C)NC(=O)OCc1ccccc1)C(=O)O` (Cbz-[Aib]-[Aib]-OH), the GI50 in [1], in test [2], in test [3], in [4], in test [5] and in [6] was > 100 µM (inactive) each time. The GI50 in test [7], in [8], in test [9], in [10], in [11] and in test [12] was > 100 µM (inactive) throughout. In addition, the GI50 in test [13] was > 10 µM (inactive); in [14], > 100 µM (inactive); in test [15], > 100 µM (inactive); in test [16], > 100 µM (inactive); in test [17], more than 100 µM; in test [18], > 100 µM (inactive). In test [19], the GI50 was > 100 µM (inactive).

For the molecule `O=C(/C=C/c1cccc(Br)c1)c1cccs1`, the GI50 in test [1] is 26 µM (inactive); in test [2], 22.1 µM (inactive); in test [3] it was 18 µM (inactive); in test [4], 18.5 µM (inactive); in [6], 17.9 µM (inactive); in test [7], 4.23 µM (inactive). Further, the GI50 in test [8] is 13 µM (inactive); in [9], 10.1 µM (inactive); in test [10], 15.3 µM (inactive); in test [11] it was 14.6 µM (inactive); in test [12], 16.7 µM (inactive); in [13] it was 21 µM (inactive). In addition, the GI50 was 16.2 µM (inactive) in test [15], 23.8 µM (inactive) in [16], 14.6 µM in test [17] and 16.5 µM (inactive) in test [19].
